How the values were obtained:
[1] = Identification of the primary metabolites in pooled rat urine by LC-MS-MS; type: in vivo; settings: single oral dose 3 mg/kg in 1% CMC, pooled urine over 24 hrs, qualitative
Procedure: Urine was collected from rats exposed to a single oral dose (3 mg/kg in 1% CMC) of each compound over a 24 hour period in metabolic cages. The pooled urine sample was then subjected to full scan mass spectral analysis, using the same LC-MS conditions as described in example 1 above. Further MS-MS analysis of the product ions was then performed, and likely fragmentations/re-arrangements assigned from the publicly available Metabolite ID database.
For the major metabolites, the assigned structures were confirmed by synthesis of authentic samples, using methods well known in the art, which were subject to LC-MS-MS analysis under the same conditions as the urine samples.
Note that metabolite ID studies provide only qualitative estimates of the relative amounts of the different metabolites present, and separately validated assays with appropriate internal standards would be required to quantitate each metabolite species.

[2] = Pharmacokinetics following a single dose in rat (1 mg/kg iv, 3 mg/kg oral), LC-MS/MS, one-compartment model; type: in vivo
Procedure: Compounds were administered as a single dose (either 1 mg/kg bodyweight in 5% DMSO via the intravenous route or 3 mg/kg in 1% carboxymethylcellulose via the oral route) to three adult rats (using different rats for each compound and each route of administration).
Blood was then sampled at various time points (including just prior to dose administration) out to 24 hrs post dose, and the level of the various compounds was assessed using a validated LC-MS/MS assay. Briefly, 3-5 μl of the deproteinised sample was applied to a Waters Atlantis (C18 20×2.1 mm, 3 μm bead size) reverse phase chromatography column equilibrated in 0.1% formic acid in 95:5 water:actetonitrile. Over 3.5 minutes bound material was gradient eluted reaching 0.1% formic acid in 5:95 water:acetonitrile, followed by a step gradient back to 0.1% formic acid in 95:5 water:acetonitrile. The column eluent was then directed to an Applied Biosystems API 4000/3200 QTrap MS/MS mass spectrometer, with a TurboIonspray™ ion source operating in positive ion mode. The interface temperature was set at 650° C., with a 40 ms dwell time for each MRM transition, monitoring the following ions:
The internal standard in each determination was the related compound (S)-3-(2′,2′-dimethyl-propanoylamino)-caprolactam, which was spiked into the sample prior to deproteinization. The lower limit of quantitation (LLOQ) for this assay was 2.4 ng/ml for each compound except (I′), where it was 38.1 ng/ml.
Following LC-MS/MS analysis of each collected sample, the pharmacokinetic disposition of the compound was modelled using Kinetica software, a well known software package for such applications.
Compounds (VI) and (VII) were subject to pharmacokinetic analysis in rat using exactly the same protocols previous applied for compounds (I) through (V) in example 1.
We therefore subjected (VIII) to pharmacokinetic analysis in rat using exactly the same protocols previous applied for compounds (I′) through (VII) in examples 1 and 7.
The isolated (R)-enantiomer of (I) was therefore synthesised (exactly as described herein for the isolated (S)-enantiomer, but replacing the (S)-ornithine starting material with commercially available (R)-ornithine of high stereochemical purity), and the PK properties of this agent, in rat, was determined using the identical methodology described above (see Examples 1, 7 and 8).

[3] = system: RANTES induced migration of THP-1 cells; experiment: ChemoTx transwell migration assay, RANTES induced migration of THP-1 cells; type: cell-based; settings: Homo sapiens; THP-1 cell line; maximal dose of chemoattractant; read-out: ED50 RANTES induced migration
Procedure: In principle, this assay consists of two chambers separated by a porous membrane. The chemoattractant is placed in the lower compartment and the cells are placed in the upper compartment. After incubation for a period at 37° C. the cells move towards the chemoattractant, and the number of cells in the lower compartment is proportional to the chemoattractant activity (relative to a series of controls).
Next, the chemoattractant solution to be placed in the lower compartment is prepared. For example, MCP-1 is diluted in GBSS+BSA to give a final concentration of 25 ng/ml. This is divided into two pots, as for the cell suspension. To one pot, the test compound is added to the same final concentration as was added to the cell suspension, while to the other pot an equal volume of GBSS+BSA plus vehicle as appropriate (e.g., not more than 1% DMSO) is added. Alternatively, other chemokines may be used (SDF-1α at 7.5 ng/ml; RANTES at 50 ng/ml; IL-8 at 10 ng/ml using neutrophils as the target cell population). […]
The impact of the test substance is calculated by comparing the chemoattractant-induced migration which occurred in the presence or absence of various concentrations of the test substance. Typically, the inhibition of migration is expressed as a percentage of the total chemoattractant-induced migration which was blocked by the presence of the compound. […]

## CC(C)(C)C(=O)N[C@H]1CCCNC1=O [Compound (I′), (S)-3-(2′,2′-dimethylpropanoylamino)-tetrahydropyridin-2-one]
[1]
  major metabolites / route of metabolism detected in urine: no significant metabolites
[2]
  clearance, times lower than for the other lactam BSCIs: more than 10 times
  plasma half-life, fold longer than the other compounds: 10 fold
[2]; blood, single oral dose 3 mg/kg in 1% CMC, Tables 7-9, read-out: Exposure (min · ng/ml), oral exposure AUC 0-t (converted)
  AUC(0-t): 15600 ng·h/mL
[2]; oral 3 mg/kg
  oral exposure, fold higher than the next best compound (V): ~20 fold
[3]
  EC50: 0.08 nM

## O=C1NCCCC[C@@H]1NC(=O)C12CC3CC(CC(O)(C3)C1)C2 [Compound (V), 3-(3′-hydroxyadamantyl-1-carbonylamino)-caprolactam]
[1]
  major metabolites / route of metabolism detected in urine: the glucuronidated compound was the major metabolite
[2]
  minor t½β: 1.83 h
[3]
  EC50: 0.25 nM

Reference: patent publication US20150141460A1, “Anti-inflammatory Compositions” (Cambridge Enterprise Limited, priority 2007, published 2015)
